# Key:
# Assay type in all cases: cell-based, human
# [1] = tested on: MECP2-KO cortical organoids; assay: MEA electrophysiology of cortical organoids; conditions: 1 μM for one month, compared with control organoids
# Method: Multi-electrode array (MEA) analysis. MEA analyses of neurons and cortical organoids were performed as described in Nageshappa et al. (Mol. Psychiatry 21:178-188 (2016)). Briefly, 3D neurosphere cultures of NPC derivation were plated on dual-chamber MEA; spontaneous spike activity was evaluated with the MED64 System (Panasonic). Glutamatergic (AP5, NBQX), GABAergic (Gabazine), and gap channel (Mefloquine) antagonism were used to check neuronal activity. After measurement, neurons were immunostained to check morphology and density. Recorded spikes were analyzed with the software Neuroexplorer (Nex Technologies, Madison, Ala., USA). For cortical organoids, 1-month organoids were plated on MEA plates and recordings were collected with a Maestro MEA system and AxIS Software Spontaneous Neural Configuration (Axion Biosystems, Atlanta, Ga., USA) using a customized script. The plate rested in the machine for three minutes followed by four minutes of recording. […] The synchrony index was calculated using a 20 ms cross-correlogram synchrony window was used to determine the synchrony index. […]
# (§1) Nefiracetam and PHA 543613 rescue network activity in MECP2-KO cortical organoids. The therapeutic efficacy of Nefiracetam and PHA 543613 was evaluated with cortical organoids, a complex, three-dimensional human neurodevelopmental model that closely recapitulates aspects of human fetal neurodevelopment. […]
# control neurons = assay: Effect of treatment on control neurons
# Method: Pharmacologic treatment. One-month old cortical organoids were treated for 1 mo with either Nefiracetam (10 μM) or PHA 543613 (10 μM) during media changes.
# Pharmacologic screening identifies two compounds that specifically reverse MECP2-KO phenotypes. 14 commercially available pharmacologic compounds with mechanisms of action that counteract the synapse and neurotransmitter pathologies were selected and which are identified in FIG. 5B. […] MECP2-KO and control neurons were treated with each of the 14 compounds and employed a tiered series of assays to identify those that could selectively rescue MECP2-KO pathology without affecting controls. […] The capacity of these compounds to increase pre and post co-localized synaptic puncta in MECP2-KO neurons were evaluated, again eliminating the drugs that affected control neurons (see FIG. 5F-G, and FIG. 6C-D).
# [2] = tested on: MECP2-KO cortical organoids; assay: Cortical organoid diameter; conditions: 1 μM for one month, 2-month old organoids
# Method: Generation of cortical organoids. Cortical organoid generation was performed according to Trujillo et al. (Cell Stem Cell 25:558-569.e7 (2019)). iPSCs cultured 5-7 d were dissociated with 1:1 Accutase (Life Technologies) in PBS, and 4×10^6 cells/well in mTeSR1 supplemented with 10 μM SB (Stemgent), 1 μM Dorso (R&D Systems), and 5 μM Y-27632 (EMD-Millipore, Burlington, Mass., USA) were plated on rotating suspension. […]
# as §1
SMILES,population spiking (MEA) [1],effect on controls (control neurons),diameter of MECP2-KO organoids [2]
"Cc1cccc(C)c1NC(=O)CN1CCCC1=O [Nefiracetam, nefiracetam]",increased population spiking to a level not significantly different from that of control organoids,leaving controls unaffected,increased
"O=C(N[C@H]1CN2CCC1CC2)c1cc2ccoc2cn1 [PHA 543613, N-[(3R)-1-azabicyclo[2.2.2]oct-3-yl]furo[2,3-c]pyridine-5-carboxamide]",increased population spiking to a level not significantly different from that of control organoids,leaving controls unaffected,increased
